Experimental data as given in patent US7897815B2, “Hexafluoroisopropanol derivatives” (Hoffmann-La Roche Inc., priority 2004, dated 2011).

Tests used:
[1] = target: T1, human LXR alpha (GST-LXRα-LBD) (Homo sapiens, UniProt Q13133); experiment: Radioligand binding assay (SPA), LXR alpha; details: GST-LXRα-LBD on SPA beads, read-out: LXRalpha Binding IC50
T1 construct: human LXR alpha (aa 164 to 447); made in house; host or cells: E. coli BL21 (pLysS)
T1 sequence (Q13133 164-447): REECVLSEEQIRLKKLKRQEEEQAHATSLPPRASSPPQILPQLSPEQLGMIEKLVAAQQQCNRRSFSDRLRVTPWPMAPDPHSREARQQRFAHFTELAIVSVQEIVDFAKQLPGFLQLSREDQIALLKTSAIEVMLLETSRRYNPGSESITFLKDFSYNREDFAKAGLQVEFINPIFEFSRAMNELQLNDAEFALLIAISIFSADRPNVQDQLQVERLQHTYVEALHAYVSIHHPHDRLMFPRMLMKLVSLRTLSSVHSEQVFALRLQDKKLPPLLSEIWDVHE
Description: The following tests were carried out in order to determine the activity of the compounds of the present invention. Background information on the performed assays can be found in: Nichols J S et al. “Development of a scintillation proximity assay for peroxisome proliferator-activated receptor gamma ligand binding domain”, Anal Biochem. 1998, 257: 112-119.
Mammalian expression vectors were constructed to express full-length human LXR alpha and LXR beta. Bacterial expression vectors were constructed to produce glutathione-s-transferase (GST) fused to the ligand binding domains (LBD) of human LXR alpha (aa 164 to 447) and human LXR beta (aa 155 to 460). To accomplish this, the portions of the sequences encoding the LBDs were amplified from full-length clones by PCR and then subcloned into the plasmid vectors. Final clones were verified by DNA sequence analysis (Willy et al., Genes Dev. 1995, 9:1033-45; Song et al., Proc Natl Acad Sci USA. 1994, 91:10809-13).
Induction, expression, and purification of GST-LBD fusion proteins were performed in E. coli strain BL21 (pLysS) cells by standard methods (Ref: Current Protocols in Molecular Biology, Wiley Press, edited by Ausubel et al).
LXR alpha and LXR beta receptor binding were assayed in buffer consisting of 50 mM HEPES, pH 7.4, 10 mM NaCl, 5 mM MgCl2. For each 96-well reaction, 500 ng of GST-LXRα-LBD or 700 ng of GST-LXR beta-LBD fusion proteins were bound to 80 μg or 40 μg SPA beads (Pharmacia Amersham) respectively, in a final volume of 50 μl by shaking. The resulting slurry was incubated for 1 h at RT and centrifuged for 2 min at 1300×g. The supernatant containing unbound protein was removed, and the semi-dry pellet containing the receptor-coated beads was re-suspended in 50 μl of buffer. […] All binding assays were performed in 96-well plates and the amount of bound ligand was measured on a Packard TopCount using OptiPlates (Packard). Dose response curves were measured within a range of concentration from 10^−10 M to 10^−4 M.

[2] = target: T2, human LXR beta (GST-LXR beta-LBD) (Homo sapiens, UniProt P55055); experiment: Radioligand binding assay (SPA), LXR beta; details: GST-LXR beta-LBD on SPA beads, read-out: LXRbeta Binding IC50
T2 construct: human LXR beta (aa 155 to 460); made in house; host or cells: E. coli BL21 (pLysS)
T2 sequence (P55055 155-460): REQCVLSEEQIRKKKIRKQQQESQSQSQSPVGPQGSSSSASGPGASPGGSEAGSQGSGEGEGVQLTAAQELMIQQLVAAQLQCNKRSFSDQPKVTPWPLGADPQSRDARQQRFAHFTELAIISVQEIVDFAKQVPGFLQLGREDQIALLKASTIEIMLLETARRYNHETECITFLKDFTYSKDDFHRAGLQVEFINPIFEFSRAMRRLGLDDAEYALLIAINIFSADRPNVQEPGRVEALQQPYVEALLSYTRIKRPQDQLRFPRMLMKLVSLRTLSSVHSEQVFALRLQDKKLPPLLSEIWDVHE
Description: The following tests were carried out in order to determine the activity of the compounds of the present invention.
Mammalian expression vectors were constructed to express full-length human LXR alpha and LXR beta. […] To accomplish this, the portions of the sequences encoding the LBDs were amplified from full-length clones by PCR and then subcloned into the plasmid vectors.
LXR alpha and LXR beta receptor binding were assayed in buffer consisting of 50 mM HEPES, pH 7.4, 10 mM NaCl, 5 mM MgCl2. […] The resulting slurry was incubated for 1 h at RT and centrifuged for 2 min at 1300×g. The supernatant containing unbound protein was removed, and the semi-dry pellet containing the receptor-coated beads was re-suspended in 50 μl of buffer. Radioligand (eg. 100,000 dpm of (N-(2,2,2-trifluoroethyl)-N-[4-(2,2,2-trifluoro-1-hydroxy-1-trifluoromethylethyl)-phenyl]-benzenesulfonamide)) was added, and the reaction incubated at RT for 1 h in the presence of test compounds, and then scintillation proximity counting was performed. All binding assays were performed in 96-well plates and the amount of bound ligand was measured on a Packard TopCount using OptiPlates (Packard). Dose response curves were measured within a range of concentration from 10^−10 M to 10^−4 M.

Row | IC50 [1] | IC50 [2] | Structure (SMILES)
1 | 17 nM |  | CCN(Cc1cscn1)c1ccc(C(O)(C(F)(F)F)C(F)(F)F)cc1Cl [Example 18, 2-{3-chloro-4-[ethyl-(thiazol-4-ylmethyl)-amino]-phenyl}-1,1,1,3,3,3-hexafluoro-propan-2-ol]
2 | 46 nM |  | CCN(Cc1ccccc1)c1ccc(C(O)(C(F)(F)F)C(F)(F)F)cc1 [Example 1, 2-[4-(benzyl-ethyl-amino)-phenyl]-1,1,1,3,3,3-hexafluoro-propan-2-ol]
3 | 2.7 nM | 5.7 nM | CCN(Cc1nc(-c2cccc(C(=O)OC)c2)oc1C)c1ccc(C(O)(C(F)(F)F)C(F)(F)F)cc1 [Example 30, 3-[4-({ethyl-[4-(2,2,2-trifluoro-1-hydroxy-1-trifluoromethyl-ethyl)-phenyl]-amino}-methyl)-5-methyl-oxazol-2-yl]-benzoic acid methyl ester]
